From ChEMBL document CHEMBL1909046, “DrugMatrix in vitro pharmacology data”

Assays:
Cytochrome P450 1A2 = biological target: T1, Cytochrome P450 1A2 (Homo sapiens, UniProt P05177); settings: bti-tn-5b1-4; note: in other assays of this panel Not Active means under 50% inhibition at 10 µM
T1 sequence (P05177 whole entry): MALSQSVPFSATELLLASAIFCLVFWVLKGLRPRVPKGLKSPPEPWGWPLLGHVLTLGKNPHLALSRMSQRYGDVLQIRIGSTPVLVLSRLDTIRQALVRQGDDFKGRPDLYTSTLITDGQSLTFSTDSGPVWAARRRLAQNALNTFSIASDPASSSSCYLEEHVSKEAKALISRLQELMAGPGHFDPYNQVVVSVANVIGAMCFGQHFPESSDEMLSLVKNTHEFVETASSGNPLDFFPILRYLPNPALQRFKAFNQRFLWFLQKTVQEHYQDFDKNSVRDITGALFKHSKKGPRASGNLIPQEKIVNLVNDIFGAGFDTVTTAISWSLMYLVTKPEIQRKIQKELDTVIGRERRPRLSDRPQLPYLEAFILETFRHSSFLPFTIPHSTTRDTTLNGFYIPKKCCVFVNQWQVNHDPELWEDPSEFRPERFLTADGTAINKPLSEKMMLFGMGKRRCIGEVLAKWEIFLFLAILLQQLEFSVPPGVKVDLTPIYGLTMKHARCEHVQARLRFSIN

Histamine H2 receptor = Histamine H2 receptor (Homo sapiens, UniProt P25021); format: cell membranes, CHO-K1, Membrane; settings: cho-k1; note: in other assays of this panel Not Active means under 50% inhibition at 10 µM
Histamine H2 receptor, sequence (P25021 whole entry): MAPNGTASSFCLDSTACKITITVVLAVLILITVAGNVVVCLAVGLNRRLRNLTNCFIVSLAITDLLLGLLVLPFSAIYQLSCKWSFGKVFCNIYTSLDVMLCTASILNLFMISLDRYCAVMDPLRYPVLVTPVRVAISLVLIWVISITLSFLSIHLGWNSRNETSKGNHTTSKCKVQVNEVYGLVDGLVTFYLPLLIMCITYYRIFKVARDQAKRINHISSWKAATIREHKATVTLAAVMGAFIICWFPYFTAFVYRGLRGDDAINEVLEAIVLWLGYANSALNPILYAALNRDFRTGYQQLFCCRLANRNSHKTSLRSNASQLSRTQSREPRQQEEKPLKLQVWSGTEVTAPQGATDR

[1] = biological target: Beta-2 adrenergic receptor (Homo sapiens, UniProt P07550); assay: DRUGMATRIX: Adrenergic beta2 radioligand binding (ligand: [3H] CGP-12177); format: cell membranes, Membrane; settings: cho; Not Active = under 50% inhibition at 10 µM
Cytochrome P450 2D6 = Cytochrome P450 2D6 (Homo sapiens, UniProt P10635); settings: bti-tn-5b1-4; note: in other assays of this panel Not Active means under 50% inhibition at 10 µM
Cytochrome P450 2D6, sequence (P10635 whole entry): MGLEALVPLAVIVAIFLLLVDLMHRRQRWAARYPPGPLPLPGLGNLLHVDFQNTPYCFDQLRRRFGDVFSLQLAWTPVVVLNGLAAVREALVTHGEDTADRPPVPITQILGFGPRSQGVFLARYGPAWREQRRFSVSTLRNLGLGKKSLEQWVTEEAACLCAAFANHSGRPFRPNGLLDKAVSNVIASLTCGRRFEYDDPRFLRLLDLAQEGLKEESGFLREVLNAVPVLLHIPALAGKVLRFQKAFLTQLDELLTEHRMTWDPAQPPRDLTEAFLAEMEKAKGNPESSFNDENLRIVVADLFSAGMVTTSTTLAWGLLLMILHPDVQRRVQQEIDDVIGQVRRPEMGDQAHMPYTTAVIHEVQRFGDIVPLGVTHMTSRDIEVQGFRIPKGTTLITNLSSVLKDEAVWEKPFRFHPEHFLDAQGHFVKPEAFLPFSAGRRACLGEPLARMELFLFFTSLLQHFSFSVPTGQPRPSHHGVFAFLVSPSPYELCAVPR

[2] = DRUGMATRIX: Sodium/nucleoside co-transporter radioligand binding (ligand: nitrobenzylthioinosine); format: cell membranes, Cavia porcellus, Dunkin-Hartley, Cerebral cortex, Membrane; settings: Not Active = under 50% inhibition at 10 µM
[3] = biological target: T2, Muscarinic acetylcholine receptor M4 (Homo sapiens, UniProt P08173); format: cell membranes, CHO-K1, Membrane; settings: cho-k1; note: in other assays of this panel Not Active means under 50% inhibition at 10 µM
T2 sequence (P08173 whole entry): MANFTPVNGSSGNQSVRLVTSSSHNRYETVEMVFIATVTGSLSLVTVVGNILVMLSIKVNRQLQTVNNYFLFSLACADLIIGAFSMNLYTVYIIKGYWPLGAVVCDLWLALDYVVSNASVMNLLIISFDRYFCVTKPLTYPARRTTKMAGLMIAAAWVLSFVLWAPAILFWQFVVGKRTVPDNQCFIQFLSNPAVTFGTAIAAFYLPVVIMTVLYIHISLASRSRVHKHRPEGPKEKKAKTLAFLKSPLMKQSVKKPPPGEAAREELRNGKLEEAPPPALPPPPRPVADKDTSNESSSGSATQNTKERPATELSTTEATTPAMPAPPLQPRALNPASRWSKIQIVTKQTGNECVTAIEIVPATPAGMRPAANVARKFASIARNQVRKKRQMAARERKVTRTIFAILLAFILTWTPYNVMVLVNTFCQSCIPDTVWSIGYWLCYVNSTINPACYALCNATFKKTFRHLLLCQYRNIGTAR

[4] = biological target: T3, C-X-C chemokine receptor type 1 (Homo sapiens, UniProt P25024); note: in other assays of this panel Not Active means under 50% inhibition at 10 µM
T3 sequence (P25024 whole entry): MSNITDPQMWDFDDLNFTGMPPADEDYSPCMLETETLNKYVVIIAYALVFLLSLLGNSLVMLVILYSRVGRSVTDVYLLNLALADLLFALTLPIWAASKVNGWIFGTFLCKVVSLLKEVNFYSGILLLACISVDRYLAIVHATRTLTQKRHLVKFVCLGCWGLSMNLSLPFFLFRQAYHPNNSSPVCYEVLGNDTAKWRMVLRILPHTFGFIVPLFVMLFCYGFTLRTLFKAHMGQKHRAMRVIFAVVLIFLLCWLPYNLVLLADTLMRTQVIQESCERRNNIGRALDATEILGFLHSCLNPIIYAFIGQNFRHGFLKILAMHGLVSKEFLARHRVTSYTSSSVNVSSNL

[5] = biological target: 5-hydroxytryptamine receptor 4 (Cavia porcellus, UniProt O70528); format: cell membranes, Dunkin-Hartley, Striatum, Membrane; note: in other assays of this panel Not Active means under 50% inhibition at 10 µM
5-hydroxytryptamine receptor 4, sequence (O70528 whole entry): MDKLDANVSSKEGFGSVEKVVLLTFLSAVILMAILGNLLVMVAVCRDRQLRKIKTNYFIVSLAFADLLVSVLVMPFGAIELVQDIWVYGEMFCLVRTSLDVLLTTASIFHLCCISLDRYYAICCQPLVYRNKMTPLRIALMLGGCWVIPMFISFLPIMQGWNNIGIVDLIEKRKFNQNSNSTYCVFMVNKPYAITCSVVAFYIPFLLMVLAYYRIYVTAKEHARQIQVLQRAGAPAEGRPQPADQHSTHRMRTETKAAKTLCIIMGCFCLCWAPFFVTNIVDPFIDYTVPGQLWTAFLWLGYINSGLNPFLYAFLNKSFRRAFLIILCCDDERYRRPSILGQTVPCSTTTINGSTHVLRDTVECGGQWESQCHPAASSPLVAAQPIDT

[6] = DRUGMATRIX: Imidazoline I2, Central radioligand binding (ligand: [3H] Idazoxan); format: cell membranes, Rattus norvegicus, Wistar, Cerebral cortex, Membrane; settings: Not Active = under 50% inhibition at 10 µM
Melanocortin receptor 3 = Melanocortin receptor 3 (Homo sapiens, UniProt P41968); format: cell membranes, Membrane; settings: hek293; note: in other assays of this panel Not Active means under 50% inhibition at 10 µM
Melanocortin receptor 3, sequence (P41968 whole entry): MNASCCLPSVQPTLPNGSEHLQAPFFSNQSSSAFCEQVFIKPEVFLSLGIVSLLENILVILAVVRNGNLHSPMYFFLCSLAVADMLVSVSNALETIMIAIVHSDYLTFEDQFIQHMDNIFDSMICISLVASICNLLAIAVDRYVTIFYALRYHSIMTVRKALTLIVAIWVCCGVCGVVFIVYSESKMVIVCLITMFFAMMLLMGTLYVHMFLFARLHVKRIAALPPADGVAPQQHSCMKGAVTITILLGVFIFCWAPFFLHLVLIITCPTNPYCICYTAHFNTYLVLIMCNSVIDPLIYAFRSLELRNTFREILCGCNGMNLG

[7] = biological target: T4, Cholecystokinin receptor type A (Homo sapiens, UniProt P32238); format: cell membranes, Membrane; settings: 1321-n1; note: in other assays of this panel Not Active means under 50% inhibition at 10 µM
T4 sequence (P32238 whole entry): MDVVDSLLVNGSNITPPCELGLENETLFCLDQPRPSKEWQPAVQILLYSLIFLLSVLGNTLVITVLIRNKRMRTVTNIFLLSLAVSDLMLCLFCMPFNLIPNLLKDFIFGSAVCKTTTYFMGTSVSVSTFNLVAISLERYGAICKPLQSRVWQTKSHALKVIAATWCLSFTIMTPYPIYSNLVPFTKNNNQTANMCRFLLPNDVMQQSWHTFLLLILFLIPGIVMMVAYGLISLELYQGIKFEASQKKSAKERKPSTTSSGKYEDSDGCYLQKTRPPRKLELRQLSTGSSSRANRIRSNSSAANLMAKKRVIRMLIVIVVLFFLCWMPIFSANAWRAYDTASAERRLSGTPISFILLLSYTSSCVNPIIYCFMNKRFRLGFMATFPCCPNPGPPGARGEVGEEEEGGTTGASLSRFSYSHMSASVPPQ

Insulin receptor = Insulin receptor (Rattus norvegicus, UniProt P15127); format: cell membranes, Wistar, Liver, Membrane; note: in other assays of this panel Not Active means under 50% inhibition at 10 µM
Insulin receptor, sequence (P15127 27-759 limits assumed): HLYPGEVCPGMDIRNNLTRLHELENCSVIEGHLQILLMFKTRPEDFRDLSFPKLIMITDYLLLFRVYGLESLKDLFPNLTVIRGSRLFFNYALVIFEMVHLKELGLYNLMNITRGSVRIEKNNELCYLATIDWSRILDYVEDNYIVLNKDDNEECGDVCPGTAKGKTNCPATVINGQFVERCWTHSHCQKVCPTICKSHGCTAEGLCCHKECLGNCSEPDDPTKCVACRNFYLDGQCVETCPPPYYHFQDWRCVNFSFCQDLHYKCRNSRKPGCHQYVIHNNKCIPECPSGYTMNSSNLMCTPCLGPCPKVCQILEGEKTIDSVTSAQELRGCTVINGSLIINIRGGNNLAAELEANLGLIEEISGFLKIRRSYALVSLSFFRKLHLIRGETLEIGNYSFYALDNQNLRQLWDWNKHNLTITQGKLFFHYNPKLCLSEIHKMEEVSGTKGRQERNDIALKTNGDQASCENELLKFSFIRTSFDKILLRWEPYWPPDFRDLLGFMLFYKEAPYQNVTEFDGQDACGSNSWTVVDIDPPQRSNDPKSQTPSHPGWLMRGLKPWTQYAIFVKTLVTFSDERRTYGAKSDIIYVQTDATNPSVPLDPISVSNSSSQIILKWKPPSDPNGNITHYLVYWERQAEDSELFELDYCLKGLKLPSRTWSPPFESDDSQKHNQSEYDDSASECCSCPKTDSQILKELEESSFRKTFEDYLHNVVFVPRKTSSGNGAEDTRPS
Insulin receptor, sequence (P15127 764-1383 limits assumed): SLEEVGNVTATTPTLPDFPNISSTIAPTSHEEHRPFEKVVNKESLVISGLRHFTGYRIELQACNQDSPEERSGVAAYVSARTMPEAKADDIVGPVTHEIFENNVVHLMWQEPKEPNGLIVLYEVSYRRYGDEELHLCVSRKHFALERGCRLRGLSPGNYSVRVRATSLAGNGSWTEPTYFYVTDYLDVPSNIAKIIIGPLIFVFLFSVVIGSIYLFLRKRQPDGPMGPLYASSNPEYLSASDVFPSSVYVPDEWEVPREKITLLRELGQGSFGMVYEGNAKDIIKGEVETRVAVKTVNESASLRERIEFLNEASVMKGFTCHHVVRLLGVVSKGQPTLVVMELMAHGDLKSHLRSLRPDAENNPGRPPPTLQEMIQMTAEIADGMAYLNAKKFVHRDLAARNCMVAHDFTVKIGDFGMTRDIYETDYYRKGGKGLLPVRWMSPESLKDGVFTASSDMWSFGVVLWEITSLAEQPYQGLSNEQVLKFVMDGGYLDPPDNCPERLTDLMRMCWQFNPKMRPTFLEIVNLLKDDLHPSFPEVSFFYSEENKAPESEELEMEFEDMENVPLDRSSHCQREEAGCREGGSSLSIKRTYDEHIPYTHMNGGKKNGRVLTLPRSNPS

Estrogen receptor beta = Estrogen receptor beta (Homo sapiens, UniProt Q92731); settings: sf9; note: in other assays of this panel Not Active means under 50% inhibition at 10 µM
Estrogen receptor beta, sequence (Q92731 whole entry): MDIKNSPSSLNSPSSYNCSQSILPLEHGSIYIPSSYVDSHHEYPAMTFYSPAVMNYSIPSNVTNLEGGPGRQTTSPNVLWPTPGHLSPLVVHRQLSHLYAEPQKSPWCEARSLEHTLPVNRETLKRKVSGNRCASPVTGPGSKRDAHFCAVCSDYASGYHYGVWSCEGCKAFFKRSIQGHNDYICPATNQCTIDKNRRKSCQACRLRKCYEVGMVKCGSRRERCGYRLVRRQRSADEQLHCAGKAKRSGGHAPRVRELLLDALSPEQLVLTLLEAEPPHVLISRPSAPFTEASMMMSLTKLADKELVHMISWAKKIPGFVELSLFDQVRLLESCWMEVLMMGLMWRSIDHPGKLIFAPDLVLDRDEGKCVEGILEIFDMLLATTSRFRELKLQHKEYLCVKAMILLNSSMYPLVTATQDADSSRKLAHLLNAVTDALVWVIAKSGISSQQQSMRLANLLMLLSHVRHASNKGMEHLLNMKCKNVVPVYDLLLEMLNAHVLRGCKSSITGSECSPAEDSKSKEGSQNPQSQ

[8] = DRUGMATRIX: Leukotriene, BLT (LTB4) radioligand binding (ligand: [3H]LTB4); format: cell membranes, Membrane; settings: u-937; Not Active = under 50% inhibition at 10 µM

OXALIPLATIN
Not Active: IC50 (Cytochrome P450 1A2) | Ki (Cytochrome P450 1A2) | IC50 (Histamine H2 receptor) | Ki (Histamine H2 receptor) | IC50 [1] | Ki [1] | IC50 (Cytochrome P450 2D6) | Ki (Cytochrome P450 2D6) | IC50 [2] | Ki [2] | IC50 [3] | Ki [3] | IC50 [4] | Ki [4] | IC50 [5] | Ki [5] | IC50 [6] | Ki [6] | IC50 (Melanocortin receptor 3) | Ki (Melanocortin receptor 3) | IC50 [7] | Ki [7] | IC50 (Insulin receptor) | Ki (Insulin receptor) | IC50 (Estrogen receptor beta) | Ki (Estrogen receptor beta) | IC50 [8] | Ki [8]

O=C1CCc2cc(OCCCCc3nnnn3C3CCCCC3)ccc2N1 [CILOSTAZOL]
Not Active: IC50 (Cytochrome P450 1A2) | Ki (Cytochrome P450 1A2) | IC50 (Histamine H2 receptor) | IC50 [1] | IC50 (Cytochrome P450 2D6) | Ki (Cytochrome P450 2D6) | IC50 [2] | Ki [2] | IC50 [3] | IC50 [4] | IC50 [5] | IC50 [6] | Ki [6] | IC50 (Melanocortin receptor 3) | IC50 [7] | IC50 (Insulin receptor) | IC50 (Estrogen receptor beta) | IC50 [8] | Ki [8]
